Reference: ChEMBL document CHEMBL5532643, “Design and synthesis of etrasimod derivatives as potent antibacterial agents against Gram-positive bacteria” (Eur J Med Chem, 2024)
≈ marks a conversion by molar mass, not a printed value. Calls of active or inactive are those of the source. No cut-off for these calls is given here.

How the values were obtained:
Cell membrane [1] = assay: Induction of cell membrane permeability in Staphylococcus aureus ATCC 25923 assessed as increase in fluorescence intensity at 4 times MIC incubated for 30 mins by PI staining based analysis; type: cell membranes
Staphylococcus aureus [2] = assay: Antibiofilm activity against Staphylococcus aureus ATCC 25923 assessed as inhibition of biofilm viability at 100 uM incubated for 18 to 20 hrs by resazurin staining based assay; type: functional; details: time 18-20 hrs
Staphylococcus aureus [3] = assay: Antibiofilm activity against Staphylococcus aureus ATCC 25923 assessed as inhibition of biofilm biomass at 100 uM incubated for 18 to 20 hrs by crystal violet staining based assay; type: functional; details: time 18-20 hrs
Staphylococcus aureus [4] = assay: Antibacterial activity against Staphylococcus aureus ATCC 43300 assessed as reduction in bacterial growth incubated for 18 to 20 hrs by broth microdilution assay; type: functional; details: time 18-20 hrs
Staphylococcus aureus [5] = assay: Antibacterial activity against […] Staphylococcus aureus ATCC 43300 assessed as reduction in bacterial growth incubated for 18 to 20 hrs by broth microdilution assay; type: functional; details: time 18-20 hrs
[6] = tested on: Staphylococcus epidermidis; assay: Antibacterial activity against Staphylococcus epidermidis RP62A assessed as reduction in bacterial growth incubated for 18 to 20 hrs by broth microdilution assay; type: functional; details: time 18-20 hrs
Enterococcus faecalis [7] = assay: Antibacterial activity against vancomycin-resistant Enterococcus faecalis ATCC 51575 assessed as reduction in bacterial growth incubated for 18 to 20 hrs by broth microdilution assay; type: functional; details: time 18-20 hrs
Acinetobacter baumannii = assay: Antibacterial activity against Acinetobacter baumannii NCTC 13423 assessed as reduction in bacterial growth incubated for 18 to 20 hrs by broth microdilution assay; type: functional; details: time 18-20 hrs
Staphylococcus aureus [8] = assay: Bactericidal activity against Staphylococcus aureus ATCC 25923 assessed as reduction in viable bacterial count incubated for 2 hrs by time-kill assay; type: functional, organism-based
Staphylococcus aureus [9] = assay: Bactericidal activity against Staphylococcus aureus ATCC 25923 assessed as log reduction in colony forming units at 4 to 8 times MIC measured after 1 to 2 hrs by time kill-assay; type: functional; details: time 1-2 hrs
Staphylococcus aureus [10] = assay: Bactericidal activity against Staphylococcus aureus ATCC 25923 assessed as log reduction in colony forming units at 0.5 to 8 times MIC measured after 6 hrs by time kill-assay; type: functional
Cell membrane [11] = assay: Induction of cell membrane damage in Staphylococcus aureus ATCC 25923 at 8 times MIC incubated for 2 hrs by scanning electron microscopic analysis; type: cell membranes
Staphylococcus aureus [12] = assay: Drug resistance, ratio of MIC for Staphylococcus aureus ATCC 25923 after 20 days exposure to MIC for Staphylococcus aureus ATCC 25923 during first exposure; type: functional; details: time 20 day
Staphylococcus aureus [13] = assay: Drug resistance, ratio of MIC for methicillin-resistant Staphylococcus aureus after 20 days exposure to MIC for methicillin-resistant Staphylococcus aureus during first exposure; type: functional; details: time 20 day
Staphylococcus aureus [14] = assay: Synergistic antibacterial activity against Staphylococcus aureus ATCC 25923 assessed as gentamicin MIC incubated for 18 to 20 hrs by checkboard assay; type: functional; details: time 18-20 hrs
Enterococcus faecalis [15] = assay: Synergistic antibacterial activity against Enterococcus faecalis ATCC 29212 assessed as gentamicin MIC incubated for 18 to 20 hrs by checkboard assay; type: functional; details: time 18-20 hrs
Staphylococcus aureus [16] = assay: Synergistic antibacterial activity against Staphylococcus aureus ATCC 25923 assessed as vancomycin MIC incubated for 18 to 20 hrs by checkboard assay; type: functional; details: time 18-20 hrs
Staphylococcus aureus [17] = assay: Synergistic antibacterial activity against Staphylococcus aureus ATCC 25923 assessed as ciprofloxacin MIC incubated for 18 to 20 hrs by checkboard assay; type: functional; details: time 18-20 hrs
Enterococcus faecalis [18] = assay: Synergistic antibacterial activity against Enterococcus faecalis ATCC 29212 assessed as ciprofloxacin MIC incubated for 18 to 20 hrs by checkboard assay; type: functional; details: time 18-20 hrs
Staphylococcus aureus [19] = assay: Synergistic antibacterial activity against methicillin-resistant Staphylococcus aureus ATCC 43300 assessed as linezolid MIC incubated for 18 to 20 hrs by checkboard assay; type: functional; details: time 18-20 hrs
Enterococcus faecalis [20] = assay: Synergistic antibacterial activity against Enterococcus faecalis ATCC 29212 incubated for 18 to 20 hrs in presence of vancomycin by checkboard assay; type: functional; details: time 18-20 hrs
Staphylococcus aureus [21] = assay: Synergistic antibacterial activity against methicillin-resistant Staphylococcus aureus ATCC 43300 incubated for 18 to 20 hrs in presence of ciprofloxacin by checkboard assay; type: functional; details: time 18-20 hrs
Staphylococcus aureus [22] = assay: Synergistic antibacterial activity against Staphylococcus aureus ATCC 25923 incubated for 18 to 20 hrs in presence of linezolid by checkboard assay; type: functional; details: time 18-20 hrs
Staphylococcus aureus [23] = assay: Synergistic antibacterial activity against methicillin-resistant Staphylococcus aureus ATCC 43300 incubated for 18 to 20 hrs in presence of linezolid by checkboard assay; type: functional; details: time 18-20 hrs
Staphylococcus aureus [24] = assay: Synergistic antibacterial activity against Staphylococcus aureus ATCC 25923 assessed as fractional inhibitory concentration index incubated for 18 to 20 hrs in presence of vancomycin by checkboard assay; type: functional; details: time 18-20 hrs
Staphylococcus aureus [25] = assay: Synergistic antibacterial activity against methicillin-resistant Staphylococcus aureus ATCC 43300 assessed as fractional inhibitory concentration index incubated for 18 to 20 hrs in presence of vancomycin by checkboard assay; type: functional; details: time 18-20 hrs
Enterococcus faecalis [26] = assay: Synergistic antibacterial activity against Enterococcus faecalis ATCC 29212 assessed as fractional inhibitory concentration index incubated for 18 to 20 hrs in presence of vancomycin by checkboard assay; type: functional; details: time 18-20 hrs
Staphylococcus aureus [27] = assay: Synergistic antibacterial activity against methicillin-resistant Staphylococcus aureus ATCC 43300 assessed as fractional inhibitory concentration index incubated for 18 to 20 hrs in presence of ciprofloxacin by checkboard assay; type: functional; details: time 18-20 hrs
Staphylococcus aureus [28] = assay: Synergistic antibacterial activity against Staphylococcus aureus ATCC 25923 assessed as fractional inhibitory concentration index incubated for 18 to 20 hrs in presence of linezolid by checkboard assay; type: functional; details: time 18-20 hrs
Staphylococcus aureus [29] = assay: Synergistic antibacterial activity against methicillin-resistant Staphylococcus aureus ATCC 43300 assessed as fractional inhibitory concentration index incubated for 18 to 20 hrs in presence of linezolid by checkboard assay; type: functional; details: time 18-20 hrs
Enterococcus faecalis [30] = assay: Synergistic antibacterial activity against Enterococcus faecalis ATCC 29212 assessed as fractional inhibitory concentration index incubated for 18 to 20 hrs in presence of linezolid by checkboard assay; type: functional; details: time 18-20 hrs
[31] = Cytotoxicity against human THP-1 cells assessed as reduction in cell viability incubated for 24 hrs by resazurin staining based analysis; type: toxicity
[32] = Hemolytic activity in mouse RBC assessed as hemolysis at 250 uM incubated for 1 hr; type: toxicity, cell-based, Erythrocyte; details: mouse red blood cells (erythrocytes), read-out: Activity
[33] = Hemolytic activity in mouse RBC assessed as hemolysis at 125 uM incubated for 1 hr; type: toxicity, cell-based, Erythrocyte; details: mouse red blood cells (erythrocytes), read-out: Activity
Erythrocyte = assay: Hemolytic activity in mouse RBC assessed as hemolysis at 62.5 uM incubated for 1 hr; type: toxicity, cell-based
[34] = Selectivity index, ratio of CC50 for cytotoxicity against human THP-1 cells assessed as reduction in cell viability to MIC for antibacterial activity against methicillin-resistant Staphylococcus aureus assessed as reduction in bacterial growth; type: toxicity, cell-based; details: read-out: Selectivity Index
[35] = Selectivity index, ratio of CC50 for cytotoxicity against human THP-1 cells assessed as reduction in cell viability to MIC for antibacterial activity against methicillin-resistant Staphylococcus epidermidis assessed as reduction in bacterial growth; type: toxicity, cell-based; details: read-out: Selectivity Index
[36] = Selectivity index, ratio of CC50 for cytotoxicity against human THP-1 cells assessed as reduction in cell viability to MIC for antibacterial activity against methicillin-resistant Enterococcus faecium assessed as reduction in bacterial growth; type: toxicity, cell-based; details: read-out: Selectivity Index
Staphylococcus aureus [37] = assay: Antimicrobial activity against Staphylococcus aureus ATCC 25923 infected in Caenorhabditis elegans AU37 assessed as reduction in number of viable bacteria at 20 uM incubated for 18 hrs; type: functional, organism-based

For `O=C(O)c1cc2cc(OCc3ccc(C4CCCCC4)c(C(F)(F)F)c3)ccc2[nH]1`, the Activity (Cell membrane [1]) was “inactive”, the inhibition at 100 µM (Staphylococcus aureus [2]) was > 90% and the inhibition at 100 µM (Staphylococcus aureus [3]) was > 90%. For the same molecule, the MIC (Staphylococcus aureus [4]) was 2.5 µM (≈ 1.04 µg/mL), the MIC (Staphylococcus aureus [5]) was 2.5 µM (≈ 1.04 µg/mL) and the MIC [6] was 2.5 µM (≈ 1.04 µg/mL). For the same molecule, the MIC (Enterococcus faecalis [7]) was 10 µM (≈ 4.17 µg/mL), the MIC (Acinetobacter baumannii) was > 200 µM and the Activity (Staphylococcus aureus [8]) was “Dose-Dependent Effect”. The “log(activity)” value (Staphylococcus aureus [9]) was >3, the “log(activity)” value (Staphylococcus aureus [10]) was >3 and the Activity (Cell membrane [11]) was “inactive”. The Ratio (Staphylococcus aureus [12]) was 3, the Ratio (Staphylococcus aureus [13]) was 3 and the MIC (Staphylococcus aureus [14]) was 0.5 µg/mL. It also gave an MIC (Enterococcus faecalis [15]) of 1 µg/mL, an MIC (Staphylococcus aureus [16]) of 0.625 µM and an MIC (Staphylococcus aureus [17]) of 0.312 µM. It also gave an MIC (Enterococcus faecalis [18]) of 1.25 µM, an MIC (Staphylococcus aureus [19]) of 5 µM and an MIC (Enterococcus faecalis [20]) of 5 µM. The MIC (Staphylococcus aureus [21]) was 1.25 µM, the MIC (Staphylococcus aureus [22]) was 2.5 µM and the MIC (Staphylococcus aureus [23]) was 1.25 µM. For the same molecule, the “fractional inhibitory concentration index (FICI)” value (Staphylococcus aureus [24]) was 0.75, the “fractional inhibitory concentration index (FICI)” value (Staphylococcus aureus [25]) was 2 and the “fractional inhibitory concentration index (FICI)” value (Enterococcus faecalis [26]) was 2. The “fractional inhibitory concentration index (FICI)” value (Staphylococcus aureus [27]) was 1, the “fractional inhibitory concentration index (FICI)” value (Staphylococcus aureus [28]) was 1 and the “fractional inhibitory concentration index (FICI)” value (Staphylococcus aureus [29]) was 1. The “fractional inhibitory concentration index (FICI)” value (Enterococcus faecalis [30]) was 2, the CC50 at 24 h [31] was > 100 µM and the hemolysis at 1 h, 250 µM [32] was 100%. The hemolysis at 1 h, 125 µM [33] was 57%, the Activity (Erythrocyte) was “Non-Toxic” and the selectivity ratio [34] was > 12. For the same molecule, the selectivity ratio [35] was > 12, the selectivity ratio [36] was > 12 and the Activity (Staphylococcus aureus [37]) was “Active”.
